Results as given in patent publication US5985273A, “Biological control of insects” (priority 1994, dated 1999).
≈ marks a conversion by molar mass, not a printed value. Starred links: 1 amine or outer side, 2 acyl side, 3 side chain; linkers in the order of their positions; H or OH if unused. Non-standard residues stand in square brackets, D forms with d. Residues, ends and D or L forms follow the SMILES beside them. *: point of attachment. Sta = CC(C)C[C@H](N)[C@@H](O)CC(=O)O; Isovaleryl = CC(C)CC(=O)*; Nle = CCCC[C@H](N)C(=O)O; CO = O=C([*:1])[*:2]

Experiments:
[1] = test system: Colorado potato beetle larvae; conditions: cited from earlier work
Lucilia cuprina larvae = test: Growth and survival of first instar sheep blowfly larvae on culture medium with inhibitor; format: in vivo; conditions: for Effect on larval growth, summary in words: Example 1, Table 1.2
Teleogryllus commodus = test: Mortality of black field cricket nymphs on treated cabbage leaf disks; format: in vivo; conditions: after 7 days
Procedure: (i) Stock solutions of inhibitors and control solutions were prepared as aqueous solutions or suspensions as outlined in Table 6.1.
(ii) Mortality was assessed by commencing the study with 1st instar nymphs.
(iii) Cabbage leaf disks (5×8 mm diameter disks/treatment) were smeared with 100 μl of inhibitor or control stock solutions and allowed to dry. Disks were placed singly in 40 mm petri dishes, together with a moist cotton wool pas as water supply and a piece of fluted plastic for shelter.
(iv) Ten nymphs were placed on each disc and the dishes incubated at 25° C.
(v) Mortality was assessed daily and any dead individuals removed.

O. surinamensis larvae = test: Weight reduction of Oryzaephylus surinamensis larvae in treated flour; format: in vivo
Procedure: Insects were cultured in cleaned, ground and sieved wholemeal flour made from organic wheat. Inhibitors from bottles of pre-weighed material were dry-mixed with the flour and residual inhibitor rinsed from bottles with a small volume of water. Rinse water was added to the flour and the mixture re-ground. The impregnated flour was transferred to a 20 mL vial and mixed thoroughly by shaking and inverting.
Adults of T. castaneum were allowed to oviposit on flour, eggs were sifted from the flour and transferred one by one with a single hair to microwell tubes containing a small amount of flour. Each level of treatment was performed in triplicated using 32 wells/replicate. Assays were performed in triplicated. Cultures were incubated at 30° C. and 55% R H.
The bioassay for this insect was outlined for T. castaneum, except incubations were conducted at 32.5° C. and 70% R H. After 8 days the insects were sieved from the flour and weighed.

[2] = test system: Bovicola ovis (Hartley strain); conditions: cited from earlier work
[3] = test system: Heliothis punctigens larvae; test: Growth and survival of cotton budworm larvae fed an artificial diet; format: in vivo; conditions: for % Alive / Average Laval Weight: 10 days; for % Alive: control 70.0; for Average Laval Weight: control 165.4
Procedure: 1. The Haricot beans were cooked in a microwave for 40 minutes. 2. Agar was added to the hot water and stirred on a hot plate until almost boiling. 3. The haricot beans, agar mix, yeast and wheat germ was blended in an electric mixer for 3 minutes. 4. When the temperature has dropped to 60°C., the acids were added and mixed with the media. […] Inhibitor solutions or an equal volume of water were placed into sterilized glass tubes at designated concentrations. The artificial media was added to each tube (1.5 ml) using a sterile 10 ml syringe. First instar Heliothis punctigens larvae (1 larvae per tube) were added to the glass tubes and the tubes were capped. The tubes were incubated for 10 days at 25° C. The larvae were killed by placing the glass tubes at -70° C. for 24 hours, and then individually weighed. Percentage inhibition was calculated by comparison to control larvae.

Ctenocephalides felis = test: Development of cat flea eggs in dried blood diets; format: in vivo; conditions: Day 16
Procedure: Blood was collected from the jugular vein of a five year old merino sheep that had not been treated with an ectoparasitic agent for 18 months. The blood was collected into a 100 ml plastic bottle containing 0.8 ml of heparin and was maintained at 4° C. Inhibitors were pre-weighed into sterile 5 ml plastic vials and 4.5 ml of blood added. The samples were mixed, placed at -70° C. for 24 hours, then freeze-dried. The freeze-dried samples were sieved through a stainless steel 63 micron sieve, and placed into sterile 5 ml plastic vials (0.15 g/per tube). Four flea eggs were placed into each vial, and a sheet of tissue paper fastened by an elastic band was fitted to the top of each vial. The vials were incubated at 25° C. and 70-80% R H for 6 days. Vermiculite was then added to each vial to provide a supporting medium for the fleas to pupate and the tubes incubated at 25° C. and 70-80% R H, for a further 10 days. Ten control vials and three vials of each treatment were tested.
At the conclusion of the incubation period the vials were placed at -20° C. for 24 hours to kill the fleas. The number of eggs hatched and the life-cycle state was recorded.

[4] = Lucilia cuprina, first instar larvae, 2 mM
[5] = 192 h, 2.5 mM, 8 days, relative to untreated larvae, read-out: Percentage Growth Inhibition
[6] = 192 h, 5 mM, 8 days, relative to untreated larvae, read-out: Percentage Growth Inhibition
[7] = 192 h, 10 mM, 8 days, relative to untreated larvae, read-out: Percentage Growth Inhibition
[8] = first instar larvae, tested at 1, 2, 5, 10 mM
[9] = Heliothis, 240 h, read-out: % Growth Inhibition

CC(C)C[C@H](NC(=O)[C@H]1O[C@@H]1C(=O)O)C(=O)NCCCCN=C(N)N (relative stereo) [E64, L-trans-epoxy-succinyl-leucylamido-(4-guanidino-butane)]
Plateau in mortality ([1]; 1000 μg/ml application level): 74-85% | Threshold level for larval growth reduction ([1]; fed on potato leaves): 50 µg/mL | Effect on larval growth, summary in words (Lucilia cuprina larvae): ineffective | Growth Inhibition (Lucilia cuprina larvae; first instar larvae, tested at 1, 2, 5 mM): No inhibition detected

CC(C)C[C@@H](N)[C@H](O)C(=O)N[C@H](C(=O)N[C@H](C(=O)N[C@@H](CC(=O)O)C(=O)O)C(C)C)C(C)C [Amastatin, ((2S,3R)-3-amino-2-hydroxy-5-methyl-hexanoyl)-Val-Val-Asp-OH]
Effect on larval growth, summary in words (Lucilia cuprina larvae): effective growth inhibitors | inhibition at 2000 µM (Lucilia cuprina larvae; [4]): 60%

CC(C)[C@H](NC(=O)[C@H](CCCNC(=N)N)NC(=O)N[C@@H](Cc1ccccc1)C(=O)O)C(=O)N[C@H](C=O)CCCNC(=N)N [Antipain] ({Phe-CO}-Arg-Val-Arg-aldehyde)
Mortality (class) (Teleogryllus commodus; 2.5-10 mM): None (none/low, 10-20% mortality) | inhibition at 2500 µM (Lucilia cuprina larvae; Lucilia cuprina, first instar larvae, 2.5 mM, unit inferred): 45.5% | inhibition at 5000 µM (Lucilia cuprina larvae; Lucilia cuprina, first instar larvae, 5 mM, unit inferred): 63.2% | inhibition at 2500 µM (O. surinamensis larvae; [5]): -10% | inhibition at 5000 µM (O. surinamensis larvae; [6]): -2% | inhibition at 10000 µM (O. surinamensis larvae; [7]): -2%

CC(C)C[C@H](NC(=O)[C@@H](O)[C@H](N)Cc1ccccc1)C(=O)O [Bestatin]
Effect on larval growth, summary in words (Lucilia cuprina larvae): effective growth inhibitors | inhibition at 5000 µM (Lucilia cuprina larvae; Lucilia cuprina, first instar larvae, 5 mM): 63% | inhibition at 1250 µM (O. surinamensis larvae; 192 h, 1.25 mM, 8 days, relative to untreated larvae, read-out: Percentage Growth Inhibition): -5% | inhibition at 2500 µM (O. surinamensis larvae; [5]): 2% | inhibition at 5000 µM (O. surinamensis larvae; [6]): -4% | Growth inhibition, summary in words (O. surinamensis larvae; text summary of Table 9.1): ineffective

O=BOB(O)OB(O)OB=O [Borax]
Mortality (Teleogryllus commodus; 5-20 mM): 93% | Mortality (class) (Teleogryllus commodus; 5-20 mM): High (high 41-100%) | inhibition at 5000 µM (O. surinamensis larvae; [6]): -5% | inhibition at 10000 µM (O. surinamensis larvae; [7]): 39% | inhibition at 20000 µM (O. surinamensis larvae; 192 h, 20 mM, 8 days, relative to untreated larvae, read-out: Percentage Growth Inhibition): 68%

CCCC[C@@H](C=O)NC(=O)[C@H](CC(C)C)NC(=O)[C@H](CC(C)C)NC(C)=O [Calpain inhibitor I, N-Acetyl-Leu-Ley-norleucinal] (Ac-Leu-Leu-[Nle]-aldehyde)
Growth Inhibition (Lucilia cuprina larvae; first instar larvae, 2 mM): 71%

CC1(C)C(C=C(Cl)Cl)C1C(=O)OC(C#N)c1cccc(Oc2ccccc2)c1 (stereo not drawn) [Cypermethrin]
LC95 ([2]; Hartley strain lice): 475 µg/mL (≈ 1140 µM)

CCOP(=S)(OCC)Oc1cc(C)nc(C(C)C)n1 [Diatinon]
LC50 ([2]; Hartley strain lice): 5.31 µg/mL (≈ 17.4 µM) | LC95 ([2]; Hartley strain lice): 19.7 µg/mL (≈ 64.7 µM) | Resistance Factor ([2]; Hartley strain, (Singapore)): 1.4

CC[C@H](C)[C@H](N)C(=O)N1CCC[C@H]1C(=O)N[C@H](C(=O)O)[C@@H](C)CC [Diprotin, H-Ile-Pro-Ile-OH]
Effect on larval growth, summary in words (Lucilia cuprina larvae): ineffective | Growth Inhibition (Lucilia cuprina larvae; [8]): No inhibition detected

CC(C)CC(N)CS [L-leucinethiol, 2-amino-4-methyl-1-pentanethiol]
Effect on larval growth, summary in words (Lucilia cuprina larvae): effective growth inhibitors | inhibition at 1000 µM (Lucilia cuprina larvae; Lucilia cuprina, Table 2.2, 1.00 mM): 21.4% | inhibition at 2000 µM (Lucilia cuprina larvae; Lucilia cuprina, Table 2.2, 2.00 mM): 73.1% | inhibition at 2000 µM (Lucilia cuprina larvae; [4]): 47% | Average Larval Weight (Lucilia cuprina larvae; Table 2.2, 1.00 mM, control 10.26): 8.06 10^-4 g | Average Larval Weight (Lucilia cuprina larvae; Table 2.2, 2.00 mM, control 10.26): 2.76 10^-4 g | % Growth Incubation (Lucilia cuprina larvae; Table 2.3, 1.0 mM): 67.2% | Average Larval Weight (Lucilia cuprina larvae; Table 2.3, 1.0 mM, control 9.08): 2.98 10^-4 g | % Growth Incubation (Lucilia cuprina larvae; Table 2.3, 2.0 mM): 86.6% | Average Larval Weight (Lucilia cuprina larvae; Table 2.3, 2.0 mM, control 9.08): 1.22 10^-4 g | Larval survival (Lucilia cuprina larvae; first instar larvae, 5 mM): All killed

CC(C)C[C@H](N)[C@](O)(Cc1c[nH]cn1)C(=O)O [Leuhistin, (2R,3S)-3-amino-2-hydroxy-2-(lII-imidazole-4-methyl)-5-methylhexanoic acid]
Effect on larval growth, summary in words (Lucilia cuprina larvae): effective growth inhibitors | Growth Inhibition (Lucilia cuprina larvae; first instar larvae, 5 mM): 65%

CC(=O)N[C@@H](CC(C)C)C(=O)N[C@@H](CC(C)C)C(=O)N[C@H](C=O)CCCNC(=N)N [Leupeptin, Ac-Leu-Leu-Arginyl.1/2H2 SO4 H2 O]
% Alive ([3]; 2.5 mM): 16.6% | Average Laval Weight ([3]; 2.5 mM): 16.6 mg | % Alive ([3]; 5.0 mM): 33.3% | Average Laval Weight ([3]; 5.0 mM): 17.0 mg | inhibition at 2500 µM [3, 9]: 90% | inhibition at 5000 µM [3, 9]: 89.7% | Percentage of Fleas Progressing Through to Pupation (Ctenocephalides felis; 1.70 mg in 4.5 ml of blood): 0% | Percentage of Fleas Progressing Through to Pupation (Ctenocephalides felis; 3.40 mg in 4.5 ml of blood): 0% | Effect on larval growth, summary in words (Lucilia cuprina larvae): intermediate inhibition | inhibition at 2000 µM (Lucilia cuprina larvae; [4]): 71% | inhibition at 10000 µM (Lucilia cuprina larvae; Lucilia cuprina, first instar larvae, 10 mM): 80%

Cl.NCCc1ccc(S(=O)(=O)F)cc1 [PEFABLOC, 4-(2-aminoethyl)-benzenesulfonylfluoride hydrochloride]
Mortality (class) (Teleogryllus commodus; 2.5-10 mM): Medium (medium 21-40%) | Percentage of Fleas Progressing Through to Pupation (Ctenocephalides felis; 1.10 mg in 4.5 ml of blood): 0% | Percentage of Fleas Progressing Through to Pupation (Ctenocephalides felis; 2.20 mg in 4.5 ml of blood): 0% | Growth Inhibition (Lucilia cuprina larvae; first instar larvae, 10 mM): 72% | Growth Inhibition (Lucilia cuprina larvae; first instar larvae, 50 mM): 92% | Percentage Growth Inhibition (O. surinamensis larvae; 2.5 mM, 8 days, relative to untreated larvae): 49% | Percentage Growth Inhibition (O. surinamensis larvae; 5 mM, 8 days, relative to untreated larvae): 61% | Percentage Growth Inhibition (O. surinamensis larvae; 10 mM, 8 days, relative to untreated larvae): 79%

CC(C)CC(=O)N[C@H](C(=O)N[C@H](C(=O)N[C@@H](CC(C)C)[C@@H](O)CC(=O)N[C@@H](C)C(=O)N[C@@H](CC(C)C)[C@@H](O)CC(=O)O)C(C)C)C(C)C [Pepstatin] (Isovaleryl-VV[Sta]A[Sta]-OH)
Growth retardation ([1]; fed on potato leaves): only a small response | Effect on larval growth, summary in words (Lucilia cuprina larvae): ineffectiveness | Growth Inhibition (Lucilia cuprina larvae; first instar larvae, tested at 1, 2, 10 mM): No inhibition detected

Casein
Percentage Growth Inhibition (O. surinamensis larvae; 10 mg/ml, 8 days): -5% | Percentage Growth Inhibition (O. surinamensis larvae; 20 mg/ml, 8 days): 10% | Percentage Growth Inhibition (O. surinamensis larvae; 40 mg/ml, 8 days): -2%

tosyl-L-lysine chloromethyl ketone [TLCK]
Effect on larval growth, summary in words (Lucilia cuprina larvae): killing the larvae | Larval survival (Lucilia cuprina larvae; first instar larvae, 5 mM): All killed | Larval survival (Lucilia cuprina larvae; first instar larvae, 10 mM): All killed

tosyl-L-phenylalanine chloromethyl ketone [TPCK]
Growth Inhibition (Lucilia cuprina larvae; [8]): No inhibition detected
